Measured values reported in patent US4370323A, “2-Cyanoaziridinyl-(1)-2-substituted-aziridinyl-(1)-methanes” (Boehringer Mannheim GmbH, priority 1976, dated 1983).

Experiments:
[1] = test system: leukocytes, lymphocytes, erythrocytes, antibody-forming spleen cells; settings: intravenous; cited from earlier work
[2] = prior art compound, cited from earlier work
leucocyte number = experiment: Alteration of the leucocyte number in rats; type: in vivo, female Sprague-Dawley rats; settings: fourth day, ten rats; for response vs control in vivo at 50 mg/kg / response vs control in vivo at 200 mg/kg: Rattus norvegicus, Leucocyte, po, 96 h, read-out: proportion of the average leucocyte number of the test group to that of the control group; for proportion of the average leucocyte number of the test group to that of the control group: oral
Method: (a) Alteration of the leucocyte number
The active substance was dissolved in each case in 10 ml of a 1% methyl-hydroxyethyl cellulose solution per kg of body weight and orally applied by means of a neck tube to ten fasting female Sprague-Dawley rats in each case. On the fourth day, blood was taken retroorbitally and the leucocyte number was determined by means of a coult counter.

Walker-Carcinoma 256 = experiment: Cancerostatic effect: Walker-Carcinoma 256 transplanted in rats; type: in vivo, female Sprague-Dawley rats; settings: for Tumor weight: three days prior to tumor application, day 7, average of 20 animals; for Difference (tumor weight): vs control
Method: (§1) Ready-to-be-transplanted tumors of various kinds were taken from freshly killed rats, comminuted coarsely and pulverized with addition of 8 ml of physiological sodium chloride solution. Female Sprague-Dawley rats weighing 80 to 100 g were used as test animals. The respective tumor cell suspension was applied subfacially to the animals in an amount of 0.5 ml per animal under sterile conditions in the neck area. On the seventh day after the transplantation the animals were killed, the tumors taken out and weighed. The substances according to the instant invention were in each case applied orally three days prior to the tumor application by means of a throat tube (in 10 ml 1% hydrous methylhydroxylethyl cellulose solution per kg of body weight).

DC-Carcino-Sarcoma = experiment: Cancerostatic effect: DC-Carcino-Sarcoma transplanted in rats; type: in vivo, female Sprague-Dawley rats; settings: for Tumor weight: three days prior to tumor application, day 7, average of 20 animals; for Difference (tumor weight): vs control
Method: as §1

Candida albicans-219 = experiment: Resistance increase in case of Candida albicans infection in mice; type: in vivo, Candida albicans; female NMRI mice; settings: 50 mg per kg oral, one hour after i.v. infection, after six days
Method: Female, adult NMRI mice weighing 25-30 g were infected with Candida albicans-219. A suspension of approximately 300,000 germs in 0.2 ml physiological sodium chloride per animal was given intravenously. One hour later, 50 mg of the compound of Example 1, per kg body weight, were applied orally by way of neck tube, dissolved in 10 ml 0.1% methyl-hydroxyethyl cellulose. The control group received the same solution without active material. After six days, 18 of the 30 animals of the control group were dead, but only 3 of the 30 animals of the test group, which corresponds to a survival rate of 90% and makes clearly evident the resistance-increasing effect.

Candida albicans = experiment: In vitro fungistatic effect; type: cell-based
[3] = Acute toxicity (LD50) in rats; settings: rat, in vivo
Method: (§2) These values are much higher than the pharmacologically effective dosages (0.5-50 mg/kg body weight).

[4] = Acute toxicity (LD50) in mice; settings: mouse, in vivo, ip, single intraperitoneal administration
Method: as §2

SMILES | response vs control in vivo at 50 mg/kg (leucocyte number; 50 mg per kg body weight) [%] | response vs control in vivo at 200 mg/kg (leucocyte number; 200 mg per kg body weight) [%] | further results
N#CC1CN1C(N)=O (stereo not drawn) [1-carboxamido-2-cyanoaziridine] |  |  | antibody-forming spleen cells [1]: increase of the antibody-forming spleen cells; cytostatic action [1]: cytostatic action; number of erythrocytes [1]: substantially unchanged; number of leukocytes and lymphocytes [1]: marked increase; keeping time in buffered aqueous solution ([2]; buffered aqueous solution): can only be kept for a short time; acid stability [2]: acid lability
CC(C)C(N1CC1C#N)N1CC1C(N)=O (stereo not drawn) [27 a] | 119 | 166 | 
CCC(N1CC1C#N)N1CC1C(N)=O (stereo not drawn) [27 d] | 140 | 178 | 
CCCC(N1CC1C#N)N1CC1C(N)=O (stereo not drawn) [27 e] | 130 | 136 | 
N#CC1CN1C1(N2CC2C(N)=O)CCOCC1 (stereo not drawn) [28 a] | 109 | 130 | 
N#CC1CN1C(C1CCCCC1)N1CC1C(N)=O (stereo not drawn) [28 b] | 120 | 155 | 
N#CC1CN1C(c1ccc(Cl)cc1)N1CC1C(N)=O (stereo not drawn) [29 b] | 100 | 140 | 
N#CC1CN1C(c1ccco1)N1CC1C(N)=O (stereo not drawn) [29 d] | 100 | 130 | 
N#CC1CN1C(c1cccs1)N1CC1C(N)=O (stereo not drawn) [29 e] | 115 | 150 | 
N#CC1CN1C(c1cccc([N+](=O)[O-])c1)N1CC1C(N)=O (stereo not drawn) [29 f] | 109 | 126 | 
Cc1ccccc1C(N1CC1C#N)N1CC1C(N)=O (stereo not drawn) [30 a] | 140 | 134 | 
COc1cccc(C(N2CC2C#N)N2CC2C(N)=O)c1 (stereo not drawn) [30 b] | 122 | 131 | 
N#CC1CN1C(c1ccc(O)cc1)N1CC1C(N)=O (stereo not drawn) [30 c] | 170 | 221 | 
COC(=O)c1ccc(C(N2CC2C#N)N2CC2C(N)=O)cc1 (stereo not drawn) [30 d] | 108 | 150 | 
CC(C)(N1CC1C#N)N1CC1C(N)=O (stereo not drawn) [Example 1, 2-[2-Cyanoaziridinyl-(1)]-2-[2-carbamoylaziridinyl-(1)]-propane] |  |  | Tumor weight (Walker-Carcinoma 256; 5.0 mg/kg oral): 11.8 g; Difference (tumor weight) (Walker-Carcinoma 256; 5.0 mg/kg oral): -27.1%; Tumor weight (Walker-Carcinoma 256; 50.0 mg/kg oral): 12.1 g; Difference (tumor weight) (Walker-Carcinoma 256; 50.0 mg/kg oral): -25.4%; Tumor weight (Walker-Carcinoma 256; 100.0 mg/kg oral): 15.6 g; Tumor weight (DC-Carcino-Sarcoma; 150 mg/kg oral): 5.9 g; Difference (tumor weight) (DC-Carcino-Sarcoma; 150 mg/kg oral): -67.0%; Tumor weight (DC-Carcino-Sarcoma; 300 mg/kg oral): 9.8 g; Difference (tumor weight) (DC-Carcino-Sarcoma; 300 mg/kg oral): -45.0%; proportion of the average leucocyte number of the test group to that of the control group (leucocyte number; 50 mg per kg body weight): 1,70; proportion of the average leucocyte number of the test group to that of the control group (leucocyte number; 200 mg per kg body weight): 1,55; survival rate (Candida albicans-219): 90%; dead animals (Candida albicans-219; control 18 of 30): 3 of the 30 animals; fungistatic effect (Candida albicans): no fungistatic effect; LD50 ([3]; ip, single intraperitoneal administration, read-out: acute toxicity (LD50)): 2550 mg/kg; LD50 ([3]; oral administration, read-out: LD50): 3100 mg/kg; LD50 [4]: 2270 mg/kg
CC(C)(N1CC1C#N)N1CC1C(N)=O (stereo not drawn) [Example 3, 2-[2-Cyanoaziridinyl-(1)]-2-[2-carbamoylaziridinyl-(1)]-propane] |  |  | proportion of the average leucocyte number of the test group to that of the control group (leucocyte number; 50 mg per kg body weight): 1,42; proportion of the average leucocyte number of the test group to that of the control group (leucocyte number; 200 mg per kg body weight): 1,82
CCOC(=O)C(C)(N1CC1C#N)N1CC1C(N)=O (stereo not drawn) [Example 6, Ethyl α-[2-cyanoaziridinyl-(1)]-α-[2-carbamoylaziridinyl-(1)]-propionate] | 115 | 165 | 
CC(C1CC1)(N1CC1C#N)N1CC1C(N)=O (stereo not drawn) [Example 9, 1-[2-cyanoaziridinyl-(1)]-1-[2-carbamoylaziridinyl-(1)]-1-cyclopropylethane] | 132 | 182 | 
N#CC1CN1C1(N2CC2C(N)=O)CCCCC1 (stereo not drawn) [Example 10, 1-[2-Cyanoaziridinyl-(1)]-1-[2-carbamoylaziridinyl-(1)]cyclohexane] |  |  | Tumor weight (Walker-Carcinoma 256; 10.0 mg/kg oral): 7.9 g; Tumor weight (Walker-Carcinoma 256; 50.0 mg/kg oral): 5.0 g; Difference (tumor weight) (Walker-Carcinoma 256; 50.0 mg/kg oral): -41.7%; Tumor weight (Walker-Carcinoma 256; 100.0 mg/kg oral): 4.5 g; Difference (tumor weight) (Walker-Carcinoma 256; 100.0 mg/kg oral): -46.9%; Tumor weight (DC-Carcino-Sarcoma; 50 mg/kg oral): 11.0 g; Difference (tumor weight) (DC-Carcino-Sarcoma; 50 mg/kg oral): -38.5%; Tumor weight (DC-Carcino-Sarcoma; 100 mg/kg oral): 10.9 g; Difference (tumor weight) (DC-Carcino-Sarcoma; 100 mg/kg oral): -40.0%; proportion of the average leucocyte number of the test group to that of the control group (leucocyte number; 50 mg per kg body weight): 0,92; proportion of the average leucocyte number of the test group to that of the control group (leucocyte number; 200 mg per kg body weight): 2,06
N#CC1CN1C1(N2CC2C(N)=O)CCCCC1 (stereo not drawn) [Example 16, 1-[2-Cyanoaziridinyl-(1)]-1-[2-carbamoylaziridinyl-(1)]-cyclohexane] |  |  | proportion of the average leucocyte number of the test group to that of the control group (leucocyte number; 50 mg per kg body weight): 1,30; proportion of the average leucocyte number of the test group to that of the control group (leucocyte number; 200 mg per kg body weight): 1,50
CC1CCC(N2CC2C#N)(N2CC2C(N)=O)CC1 (stereo not drawn) [Example 19, 1-[2-Cyanoaziridinyl-(1)]-1-[2-carbamoylaziridinyl-(1)]-4-methylcyclohexane] | 100 | 136 | 
COC(=O)C1CCC(N2CC2C#N)(N2CC2C(N)=O)CC1 (stereo not drawn) [Example 20, 1-[2-Cyanoaziridinyl-(1)]-1-[2-carbamoylaziridinyl-(1)]-4-methoxycarbonylcyclohexane] | 123 | 151 | 
N#CC1CN1C1CCCC(N2CC2C#N)(N2CC2C(N)=O)C1 (stereo not drawn) [Example 21, 1,3-Bis-[2-cyanoaziridinyl-(1)]-1-[2-carbamoylaziridinyl-(1)]-cyclohexane] | 111 | 130 | 
N#CC1CN1C(c1ccccc1)(c1ccccc1)N1CC1C(N)=O (stereo not drawn) [Example 26, α-[2-Cyanoaziridinyl-(1)]-α-[2-carbamoylaziridinyl-(1)]-diphenylmethane] | 125 | 120 | 
CC(N1CC1C#N)N1CC1C(N)=O (stereo not drawn) [Example 27, 1-[2-Cyanoaziridinyl-(1)]-1-[2-carbamoylaziridinyl-(1)]-ethane] | 117 | 153 | 
N#CC1CN1C1(N2CC2C(N)=O)CCCSC1 (stereo not drawn) [Example 28, 3-[2-Cyanoaziridinyl-(1)]-3-[2-carbamoylaziridinyl-(1)]-tetrahydrothiapyran] | 126 | 180 | 
N#CC1CN1C(C=Cc1ccccc1)N1CC1C(N)=O (stereo not drawn) [Example 31, 3-[2-cyanoaziridinyl-(1)]-3-[2-carbamoylaziridinyl-(1)]-1-phenylprop-1-ene] | 113 | 141 | 
N#CC1CN1C1(N2CC2C#N)CCCCC1 (stereo not drawn) [Example 32, 1,1-bis-[2-cyanoaziridinyl-(1)]-cyclohexane] | 150 | 150 | 
